Assay results taken from ChEMBL document CHEMBL1129949, “Correlation of antimalarial activity of artemisinin derivatives with binding affinity with ferroprotoporphyrin IX” (J Med Chem, 1997).
pIC50: −log10 of the molar value.

test system: Plasmodium falciparum; assay: Mean of EC50 values for FM3A cells/ mean of EC50 values for Plasmodium falciparum; assay type: functional, organism-based

| SMILES | pIC50 |
| --- | --- |
| CC1C(OC(=O)CCC(=O)O)O[C@@H]2O[C@]3(C)CC[C@H]4[C@H](C)CC[C@@H]1[C@@]24OO3 (some centres undefined) | 9.21 |
| CC1C(O)O[C@@H]2OC3(C)CC[C@H]4[C@H](C)CC[C@@H]1[C@@]24OO3 (single isomer, unassigned) | 8.96 |
| COC1O[C@@H]2OC3(C)CC[C@H]4[C@H](C)CC[C@@H](C1C)[C@@]24OO3 (single isomer, unassigned) | 8.39 |
| C[C@@H]1CC[C@H]2C(Cn3ccnc3)C(O)O[C@@H]3OC4(C)CC[C@@H]1[C@]32OO4 (single isomer, unassigned) | 9.41 |
| CCOC1O[C@@H]2OC3(C)CC[C@H]4[C@H](C)CC[C@@H](C1C)[C@@]24OO3 (single isomer, unassigned) | 7.62 |
| C[C@@H]1CC[C@H]2C(Cn3ccnc3)C(=O)O[C@@H]3OC4(C)CC[C@@H]1[C@]32OO4 (single isomer, unassigned) | 7.49 |
| C[C@@H]1CC[C@H]2C(CSc3ccccc3)C(=O)O[C@@H]3OC4(C)CC[C@@H]1[C@]32OO4 (single isomer, unassigned) | 7.70 |
| C=C1C(=O)O[C@@H]2OC3(C)CC[C@H]4[C@H](C)CC[C@@H]1[C@@]24OO3 (single isomer, unassigned) | 7.52 |
| C[C@@H]1CC[C@H]2[C@@H](C)C(=O)O[C@@H]3O[C@@]4(C)CC[C@@H]1[C@]32OO4 [ARTEMISININ] | 8.30 |
